Laboratory results reported in publication PMC7311950, “Potent Tetrahydroquinolone Eliminates Apicomplexan Parasites” (Frontiers in Cellular and Infection Microbiology, 2020).
≈ marks a conversion by molar mass, not a printed value. Where two headings read alike, the source gives them in different places.

How the values were obtained:
[1] = tested on: T. gondii EGS strain bradyzoites; test: In vitro challenge assay for EGS strain bradyzoites; format: cell-based, Toxoplasma gondii; conditions: for number of true cysts and small organisms: EGS strain, at 1 and 10 μM, immunofluorescence microscopy; for IC50: EGS strain in HFF, Figure 1A, read-out: Brady IC50
Method: HFF cells were grown in IMDM on removable, sterile glass cover slips in the bottom of a clear, flat-bottomed 24-well plate. Cultures were infected with 3 × 10^4 EGS strain parasites per well, in 0.5 mL media. The plate was returned to incubator at 37°C overnight. The following day, the media was removed. Colorless IMDM and compounds were added to make various concentrations of the drug. Total volume was 0.5 mL. Two wells had media only, as a control. Plates were returned to the 37°C incubator for 72 h, checked once each 24 h. If tachyzoites were visible in the control before 72 h, cells were fixed and stained. Cells were fixed using 4% paraformaldehyde and stained with Fluorescein-labeled Dolichos Biflorus Agglutinin, DAPI, and antibody to BAG1. Disks were removed, mounted on glass slides, and visualized using microscopy (Nikon Tl7). Slides were scanned using a CRi Panoramic Scan Whole Slide Scanner and viewed using Panoramic Viewer Software. Effects of compounds were quantitated by counting cysts in controls and treated cultures. Dolichos staining delimited structures and single organisms that remained were counted in a representative field of view. This was then multiplied by a factor determined by the total area of the cover slip in order to estimate the number of cysts and organisms in each condition. When the following forms were observed: “true cysts” with a dolichos-staining wall, “pseudocysts” or tight clusters of parasites, and small organisms, if there were fewer than four parasites visible in a cluster, organisms were counted individually (as “small organisms”). The entire scanned coverslip with all fields was also reviewed by 3 observers to confirm consistency.

[2] = Kinetic solubility in PBS pH 7.4 (Chem Partners)
Method: The effects of changing R1 as 7-Et, 7-Me, 6-CF3, or 6-Me on activity against RH strain tachyzoites, kinetic solubility, and metabolic stability were compared. Kinetic solubility and metabolic stability in human or murine liver microsomes were measured. The hERG (human Ether-à-go-go-Related) liability was also determined. The hERG gene (KCNH2) encodes a protein Kv11.1, the alpha subunit of a potassium ion channel. This channel conducts the rapid component of the delayed rectifier potassium current, IKr, which is critical for repolarization of cardiac action potentials. A reduction in hERG currents from adverse drug effects can lead to long QT interval syndromes. These syndromes are characterized by action potential prolongation, lengthening of the QT interval on surface EKG, and an increased risk for “torsade de pointes” arrhythmias and sudden death. The MDCK-MDR1 Permeability Assay was also performed. MDCK-MDR1 refers to the ability of a compound to permeate across membranes of MDCK-MDR1 (Madin Darby canine kidney [MDCK] cells with the MDR1 gene [ABCB1], the gene encoding for the efflux protein, P-glycoprotein (P-gp)) in vitro. Assessing transport in both directions (apical to basolateral and basolateral to apical) across the cell monolayers enables an efflux ratio to be determined. […] This provides a prediction of blood brain barrier (BBB) penetration potential/permeability and efflux ratio. Effect in CACO-2 (Colon Adenocarcinoma cells) as a permeability assay and on cytochrome P450 (CYP 450) were also determined. CYP enzymes catalyze oxidative biotransformation (phase 1 metabolism) of most drugs. CYP enzymes, bind to membranes in a cell (cyto) and contain a heme pigment (chrome and P) that absorbs light at a wavelength of 450 nm when exposed to carbon monoxide. Metabolism of a drug by CYP enzymes is a major source of variability in drug effect. These were measured by Chem Partners. The relative effect on HFF and parasite enzymes also were compared.

HepG2 cells = test: Cytotoxicity with HepG2 cells; format: cell-based; conditions: Homo sapiens
Method: Toxicity studies also were performed with HepG2 cells (human liver cancer immortal cell line derived from the liver tissue of a […]) in parallel with the studies of P. falciparum, with inhibitors in vitro, as described in McPhillie et al. ([2016]).

[3] = tested on: T. gondii mitochondrial membrane potential; test: T. gondii mitochondrial membrane potential, safranine method; format: cell-based, Toxoplasma gondii; conditions: permeabilized T. gondii tachyzoites, safranin O
Method: The mitochondrial membrane potential was measured by the safranine method according to Vercesi et al. ([1998]). Freshly egressed T. gondii tachyzoites were filtered and washed twice with intracellular buffer (125 mM sucrose, 65 mM KCl, 10 mM HEPES-KOH buffer, pH 7.2, 1 mM MgCl2, and 2.5 mM potassium phosphate). After washing, the parasites were resuspended in the same buffer at 10^9/mL. An aliquot of 50 μL of this suspension was added to a cuvette containing Safranin O, 2.5 μM and Succinate 1 mM in final volume of 2 mL of the intracellular buffer. The fluorescence was measured with a Hitachi 7000 spectrofluorometer with settings Ex. 495/Em. 586. Once the baseline fluorescence was stable, 30 μM digitonin was added to permeabilize the parasites. Eighty five seconds after permeabilization, the THQ derivatives, dissolved in DMSO, were added. Five micromolars of FCCP (Carbonyl cyanide-4-(trifluoromethoxy) phenylhydrazone) was used as an uncoupler reference for calculations and its effect was considered 100%. We used similar conditions for measuring the mitochondrial membrane potential of mammalian cells with the following changes: the mammalian cells were resuspended at 10^8/mL. We also used 50 μL of this suspension for each experiment in a total volume of 2 mL. The substrate used for mammalian cells was 5 mM glutamate and 5 mM malate. A higher concentration of digitonin (50 μM) was used to permeabilize the mammalian cells. The compounds were added at ~400 s after permeabilization. Each experiment was repeated at least three times in duplicates. Statistical analysis, unpaired student t-test, was performed using GraphPad Prism 8.0 (GraphPad Software, Inc., San Diego, CA).
Mitochondrial membrane potential measurements were performed with permeabilized T. gondii tachyzoites in suspension using safranin O, which loads into polarized membranes [see section Materials and Methods in the Supplemental Materials (Vercesi et al., [1998])]. T. gondii tachyzoites were permeabilized with digitonin to allow the mitochondrial substrate succinate to cross the membrane and energize the mitochondrion. The fluorescence of safranin O, which loads into energized mitochondria was used to measure the membrane potential. The energized state of the mitochondrion is observed by a decrease in fluorescence (Figures 3A,C,E). Trifluoromethoxy carbonylcyanide phenylhydrazone (FCCP) was used to depolarize the membrane, which is observed as an increase in fluorescence (Figures 3A,B). JAG21 depolarized the membrane potential even at concentrations as low as 2 nM (Figures 3C,D). JAG21 and Atovaquone had similar effects on the mitochondrial membrane potential (Figure 3D). […]

[4] = PBS, pH 7.4, aqueous solubility (PBS, pH 7.4), amorphous compounds
[5] = dose response testing, read-out: HEP G2 IC50

Cc1[nH]c2c(c(=O)c1-c1ccc(Oc3ccc(OC(F)(F)F)cc3)cc1)CCCC2 [JAG21, 2-Methyl-3-(4-(4-(Trifluoromethoxy)Phenoxy)Phenyl)-5,6,7,8-Tetrahydroquinolin-4-One]
EGS bradyzoites in treated cultures ([1]; 500 nM): we do not see EGS bradyzoites
number of true cysts and small organisms [1]: statistically significant reduction
IC50 ([1]; Toxoplasma gondii): 2 µM
IC90 ([1]; Toxoplasma gondii, supplement summary): < 1 µM
solubility [2, 4]: 7 µM (≈ 2.91 µg/mL)
solubility ([2]; PBS, pH 7.4, solubility of the microcrystalline form, microcrystalline form): 3.5 µM (≈ 1.45 µg/mL)
solubility ([2]; pH 7.4): 7.07 µM (≈ 2.94 µg/mL)
IC50 (HepG2 cells; [5]): 17.7 µM
IC50 (HepG2 cells; supplement summary, read-out: IC50, human HepG2 cells): > 17 µM
concentration that depolarized the mitochondrial membrane potential [3]: ≤ 2 nM

Cc1[nH]c2c(c(=O)c1-c1ccc(Oc3ccc(Cl)cc3)cc1)CCCC2 [JAG50]
number of true cysts and small organisms [1]: statistically significant reduction
IC50 ([1]; Toxoplasma gondii): 2 µM
solubility [2, 4]: 16 µM (≈ 5.85 µg/mL)
solubility ([2]; pH 7.4): 16.4 µM (≈ 6 µg/mL)
IC50 (HepG2 cells; [5]): 7.1 µM
concentration that depolarized the mitochondrial membrane potential [3]: ≥ 200 nM
